“Also recorded” adds a separate entry of the source. Structures can show the parent of a compound that is named as a salt. Where two headings read alike, the source gives them in different places.
Tests used:
[1] = system: Platinum SuperFi DNA polymerase
Protocol: Yield and tolerance for urea in PCR master mix with different amines compared to the control master mix (with KCl) was evaluated by amplification of a 1 kb fragment from 42 ng of human genomic DNA template in 50 μl PCR reactions.
PCR master mix (1×) composition was 0.16 u/μL Platinum SuperFi DNA polymerase in 1× SuperFi buffer. In some experiments, 110 mM of KCl was substituted for solution comprising amines. […]
The PCR program used for the experiment is described in Table 4.
(§1) Products were detected by electrophoresis in a 1% TAE gels followed by staining with ethidium bromide.

[2] = system: mutant Taq DNA polymerase
[3] = system: Platinum SuperFi DNA polymerase; assay type: biochemical; settings: for yield of PCR product: up to 20 μl of Agencourt XP magnetic beads in 50 μl PCR reaction, amine instead of 110 mM KCl
Protocol: PCR yield and tolerance for magnetic beads in PCR master mix with different amines compared to the control master mix (with KCl) was evaluated by amplification of a 1 kb fragment from 42 ng of human genomic DNA template. PCR was performed in 50 μl PCR reactions in the presence of increasing amounts of magnetic beads.
The PCR master mix (1×) concentration of KCl (110 mM) was substituted for solution comprising an amine.
Agencourt XP magnetic beads were used in the experiment. From 5 to 35 μl of magnetic beads were washed 2 times with 80% EtOH and dried (an imitation of a protocol for purifying nucleic acids). Dried magnetic beads were resuspended in 50 μl of PCR reaction (complete with PCR master mix, DNA matrix, and primers). The forward primer was SEQ ID No: 3, and the reverse primer was SEQ ID No: 4.
as §1

Taq DNA polymerase = Taq DNA polymerase (Thermus aquaticus, UniProt P19821); assay type: biochemical
Taq DNA polymerase, sequence (P19821 whole entry): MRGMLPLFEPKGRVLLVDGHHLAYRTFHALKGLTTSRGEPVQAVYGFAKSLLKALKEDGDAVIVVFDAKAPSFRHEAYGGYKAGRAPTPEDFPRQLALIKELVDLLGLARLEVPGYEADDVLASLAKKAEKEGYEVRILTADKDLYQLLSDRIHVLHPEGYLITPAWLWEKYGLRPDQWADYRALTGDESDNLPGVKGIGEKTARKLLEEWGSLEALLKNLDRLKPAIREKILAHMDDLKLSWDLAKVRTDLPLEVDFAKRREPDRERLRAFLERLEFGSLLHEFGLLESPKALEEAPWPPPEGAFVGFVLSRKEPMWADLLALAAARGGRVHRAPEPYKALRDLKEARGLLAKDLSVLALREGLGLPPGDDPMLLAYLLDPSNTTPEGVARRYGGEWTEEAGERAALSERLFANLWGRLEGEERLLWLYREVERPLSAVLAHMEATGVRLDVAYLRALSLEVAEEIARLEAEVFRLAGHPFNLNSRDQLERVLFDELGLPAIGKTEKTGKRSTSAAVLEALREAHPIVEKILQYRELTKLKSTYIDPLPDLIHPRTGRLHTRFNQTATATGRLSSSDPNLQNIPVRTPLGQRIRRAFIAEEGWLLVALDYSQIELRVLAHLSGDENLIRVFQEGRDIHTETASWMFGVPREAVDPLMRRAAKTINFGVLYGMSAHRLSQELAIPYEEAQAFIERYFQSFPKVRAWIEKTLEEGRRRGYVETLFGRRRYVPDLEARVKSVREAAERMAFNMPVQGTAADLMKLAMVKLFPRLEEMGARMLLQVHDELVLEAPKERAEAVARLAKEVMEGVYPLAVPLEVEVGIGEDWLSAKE
Text: A forward primer (SEQ ID No: 1) and a reverse primer (SEQ ID No: 2) were used with the PCR program described in Table 3. PCR products were detected by agarose gel electrophoresis followed by ethidium bromide staining

[4] = PCR buffers containing amine, PCR buffer 1: 0.04%
[5] = sodium citrate 0-0.08%, PCR buffers with 10, 40 or 50 mM amine
[6] = urea 0-230 mM, PCR buffers with 10, 40 or 50 mM amine

Structure (SMILES) | PCR product yield (SuperFi DNA polymerase) | PCR yield [1] | PCR product yield [2] | tolerated amount of magnetic beads in the PCR reaction [3] | PCR product yield in the presence of magnetic beads ([3]; reaction buffer with 70, 80 or 90 mM KCl, part or all of the potassium salt replaced with amine, data not shown) | yield of PCR product [3] | PCR product yield compared to PCR buffer 1 without amines (Taq DNA polymerase) | sodium citrate concentration tolerated (Taq DNA polymerase; [4]) | tolerance to sodium citrate compared with PCR buffer 1 (Taq DNA polymerase; sodium citrate 0-0.08%, PCR buffers containing amine) | PCR product yield compared with PCR buffer 1 (Taq DNA polymerase; [5]) | resistance to urea compared with PCR buffer 1 (Taq DNA polymerase; urea 0-230 mM, PCR buffers containing amine) | PCR product yield compared with PCR buffer 1 (Taq DNA polymerase; [6]) | tolerance to urea compared to PCR buffer with KCl [1] | greater tolerance to sodium citrate compared to PCR buffer 1 (Taq DNA polymerase) | greater tolerance to urea compared with PCR buffer 1 (Taq DNA polymerase) | sodium citrate concentration tolerated (Taq DNA polymerase) | PCR product yield compared with PCR buffer 1 (Taq DNA polymerase; hydrochloride) | greater tolerance to sodium citrate compared to PCR buffer 1 (Taq DNA polymerase; sodium citrate, PCR buffer 1: 0.04%) | greater tolerance to urea compared with PCR buffer 1 (Taq DNA polymerase; urea, PCR buffer 1: 37 mM)
CNC [dimethylamine hydrochloride] | increased | much higher | increased | increased the tolerated amount | increased | Increased yield | – | – | – | – | – | – | – | – | – | – | – | – | –
CN(C)C [trimethylamine hydrochloride] | – | – | – | – | – | Increased yield | higher | 0.04% | same tolerance | Higher | same resistance | increased | – | – | – | – | – | – | –
CCNCC.Cl [diethylamine hydrochloride] | – | much higher | – | – | – | Increased yield | higher | – | – | – | – | – | Increased tolerance | 1.25 times | 2.5 times | 0.05% | increased; also recorded: Higher | – | –
CC(C)NC(C)C.Cl [diisopropylamine hydrochloride] | – | – | – | – | – | – | higher | 0.05% | – | Higher | – | increased | – | – | – | – | – | 1.25 times | 2.5 times
